{
  "source": "patent US20040253257A1",
  "about": "“Biological compositions and methods for treatment of liver cancer” (priority 2003, published 2004)",
  "key": {"human liver cancer [1]": {"tested_on": "human liver cancer", "experiment": "Swiss mouse model of human liver cancer, growth of tumors", "conditions": "31st day from tumor inoculation; 30 days treatment; yeast 0.3 ml oral once per day, CTX 30 mg/kg iv once a week", "excerpt": "The animals were generally anaesthetized. […] Afterwards, the opening was sutured and the mice were put back into the cage.\n(§1) The mice injected with tumor cells were divided into 4 experimental groups of ten mice per group and one control group. The four experimental groups were triplicated (i.e., using a total of 120 mice in the experimental groups).\n(§2) The mice received the biological compositions, untreated yeast cells, CTX or saline on the same day as the tumor cells were transplanted. The mice in group CK2 also started receiving saline on the same day as the other four groups. The biological compositions, untreated yeast cells and saline were administered orally by a feeding tube and the CTX by intravenous injection for 30 consecutive days."}, "human liver cancer [2]": {"tested_on": "human liver cancer", "conditions": "for Number of live animals remaining in the groups after 30 days of treatment: 30 mice per group", "description": "(§3) The survival time of mice after tumor injection and treatment was studied.\nThe biological composition comprising […] of activated and conditioned yeast cells of the strain Saccharomyces cerevisiae Hansen strain AS2.503 was prepared by the methods described in Section 5.1 and subsections therein.\nThe animals were prepared in a similar manner as described in Section 6.1.\n(§4) The mice injected with tumor cells were divided into 4 experimental groups of ten mice per group and one control group. The four experimental groups were triplicated (i.e., using a total of 120 mice in the experimental groups). In group 2AY, the mice received 0.3 ml of the biological composition once per day. In group 2NY, the mice received 0.3 ml of the untreated yeast cells once per day. In group 2CTX, the mice were injected intravenously with 30 mg of cyclophosphamide (CTX) per kg body weight once a week for four weeks. In group 2CK1, the mice received 0.3 ml of physiological saline once per day.\nas §2, with “2CK2” for “CK2”, “days. The mice were observed over 6 months from the day of their inoculation and survival was recorded. The weight of the mice, the weight of the liver, and the weight of the tumor were determined by standard techniques.” for “days.”"}, "Liver tumor H-22 [3]": {"tested_on": "Liver tumor H-22", "experiment": "C3H mouse model of liver cancer (H-22), growth of tumors", "conditions": "31st day from tumor inoculation; 30 days treatment; yeast 0.3 ml oral once per day, CTX 30 mg/kg iv per day", "description": "(§5) The biological composition comprising 10^8 cells per ml of activated and conditioned yeast cells of the strain Saccharomyces cerevisiae Hansen strain AS2.503 was prepared by the methods described in Section 5.1 and subsections therein.\nas §1, §2"}, "Liver tumor H-22 [4]": {"tested_on": "Liver tumor H-22", "conditions": "for Number of live animals remaining in the groups after 30 days of treatment: 30 mice per group", "description": "as §3, §5\nThe animals were prepared in a similar manner as described in Section 8.1.\nas §4, with “per day.” for “once a week for four weeks.”\nas §2, with “2CK2” for “CK2”, “days. The mice were observed over 6 months from the day of their inoculation and survival was recorded.” for “days.”"}, "[5]": {"conditions": "0 month after cessation of treatment"}, "[6]": {"conditions": "1 month after cessation of treatment"}, "[7]": {"conditions": "2 months after cessation of treatment"}, "[8]": {"conditions": "3 months after cessation of treatment"}, "[9]": {"conditions": "4 months after cessation of treatment"}, "[10]": {"conditions": "5 months after cessation of treatment"}, "[11]": {"conditions": "6 months after cessation of treatment"}, "[12]": {"conditions": "from injection of tumor cells, 30 days treatment"}, "[13]": {"conditions": "mice that survived, observed over 6 months"}},
  "note": "Like-named read-outs stand apart in the source and are kept apart here.",
  "data": [
    {"smiles": "O=P1(N(CCCl)CCCl)NCCCO1", "note": "(stereo not shown) [CTX, cyclophosphamide]", "values": [
      {"measurement": "mean weight of liver and standard deviation", "setting": "human liver cancer [1]", "result": "1,372 ± 8 mg"},
      {"measurement": "mean weight of mice and standard deviation", "setting": "human liver cancer [1]", "result": "17 ± 0.9", "unit": "g"},
      {"measurement": "mean weight of tumor nodules and standard deviation", "setting": "human liver cancer [1]", "result": "249 ± 9", "unit": "mg"},
      {"measurement": "Number of live animals remaining in the groups after 30 days of treatment", "setting": "human liver cancer [2]; [5]", "result": 30},
      {"measurement": "Number of live animals remaining in the groups after 30 days of treatment", "setting": "human liver cancer [2]; [6]", "result": 30},
      {"measurement": "Number of live animals remaining in the groups after 30 days of treatment", "setting": "human liver cancer [2]; [7]", "result": 27},
      {"measurement": "Number of live animals remaining in the groups after 30 days of treatment", "setting": "human liver cancer [2]; [8]", "result": 22},
      {"measurement": "Number of live animals remaining in the groups after 30 days of treatment", "setting": "human liver cancer [2]; [9]", "result": 19},
      {"measurement": "Number of live animals remaining in the groups after 30 days of treatment", "setting": "human liver cancer [2]; [10]", "result": 7},
      {"measurement": "Number of live animals remaining in the groups after 30 days of treatment", "setting": "human liver cancer [2]; [11]", "result": 0},
      {"measurement": "survival of mice bearing liver cancer cells", "setting": "human liver cancer [2]; [12]", "result": "all died after four months"},
      {"measurement": "mean weight of liver and standard deviation", "setting": "human liver cancer [2]; [13]", "result": "all animals dead"},
      {"measurement": "mean weight of mice and standard deviation", "setting": "human liver cancer [2]; [13]", "result": "all animals dead"},
      {"measurement": "mean weight of tumor nodules and standard deviation", "setting": "human liver cancer [2]; [13]", "result": "all animals dead"},
      {"measurement": "mean weight of liver and standard deviation", "setting": "Liver tumor H-22 [3]", "result": "1,351 ± 9 mg"},
      {"measurement": "mean weight of mice and standard deviation", "setting": "Liver tumor H-22 [3]", "result": "18.8 ± 0.7", "unit": "g"},
      {"measurement": "mean weight of tumor nodules and standard deviation", "setting": "Liver tumor H-22 [3]", "result": "253 ± 8", "unit": "mg"},
      {"measurement": "Number of live animals remaining in the groups after 30 days of treatment", "setting": "Liver tumor H-22 [4]; [5]", "result": 30},
      {"measurement": "Number of live animals remaining in the groups after 30 days of treatment", "setting": "Liver tumor H-22 [4]; [6]", "result": 27},
      {"measurement": "Number of live animals remaining in the groups after 30 days of treatment", "setting": "Liver tumor H-22 [4]; [7]", "result": 24},
      {"measurement": "Number of live animals remaining in the groups after 30 days of treatment", "setting": "Liver tumor H-22 [4]; [8]", "result": 19},
      {"measurement": "Number of live animals remaining in the groups after 30 days of treatment", "setting": "Liver tumor H-22 [4]; [9]", "result": 11},
      {"measurement": "Number of live animals remaining in the groups after 30 days of treatment", "setting": "Liver tumor H-22 [4]; [10]", "result": 3},
      {"measurement": "Number of live animals remaining in the groups after 30 days of treatment", "setting": "Liver tumor H-22 [4]; [11]", "result": 0},
      {"measurement": "survival of mice bearing liver cancer cells", "setting": "Liver tumor H-22 [4]; [12]", "result": "all died after four months"},
      {"measurement": "mean weight of liver and standard deviation", "setting": "Liver tumor H-22 [4]; [13]", "result": "all animals dead"},
      {"measurement": "mean weight of mice and standard deviation", "setting": "Liver tumor H-22 [4]; [13]", "result": "all animals dead"},
      {"measurement": "mean weight of tumor nodules and standard deviation", "setting": "Liver tumor H-22 [4]; [13]", "result": "all animals dead"}
    ]}
  ]
}
